Experimental data taken from patent publication US20030113352A1, “Neutralization of stratum corneum to treat hyperkeratotic skin lesions” (The Regents of the University of California, priority 2001, published 2003).

What was measured:
NHE1 antiporter = target: T1, NHE1 antiporter (Homo sapiens, UniProt P19634); experiment: Intracellular pH (BCECF) and recovery from acid load in cultured human keratinocytes; assay type: cell-based
T1 construct: endogenous in cells; host or cells: cultured human keratinocytes (CHK)
T1 sequence (P19634 whole entry): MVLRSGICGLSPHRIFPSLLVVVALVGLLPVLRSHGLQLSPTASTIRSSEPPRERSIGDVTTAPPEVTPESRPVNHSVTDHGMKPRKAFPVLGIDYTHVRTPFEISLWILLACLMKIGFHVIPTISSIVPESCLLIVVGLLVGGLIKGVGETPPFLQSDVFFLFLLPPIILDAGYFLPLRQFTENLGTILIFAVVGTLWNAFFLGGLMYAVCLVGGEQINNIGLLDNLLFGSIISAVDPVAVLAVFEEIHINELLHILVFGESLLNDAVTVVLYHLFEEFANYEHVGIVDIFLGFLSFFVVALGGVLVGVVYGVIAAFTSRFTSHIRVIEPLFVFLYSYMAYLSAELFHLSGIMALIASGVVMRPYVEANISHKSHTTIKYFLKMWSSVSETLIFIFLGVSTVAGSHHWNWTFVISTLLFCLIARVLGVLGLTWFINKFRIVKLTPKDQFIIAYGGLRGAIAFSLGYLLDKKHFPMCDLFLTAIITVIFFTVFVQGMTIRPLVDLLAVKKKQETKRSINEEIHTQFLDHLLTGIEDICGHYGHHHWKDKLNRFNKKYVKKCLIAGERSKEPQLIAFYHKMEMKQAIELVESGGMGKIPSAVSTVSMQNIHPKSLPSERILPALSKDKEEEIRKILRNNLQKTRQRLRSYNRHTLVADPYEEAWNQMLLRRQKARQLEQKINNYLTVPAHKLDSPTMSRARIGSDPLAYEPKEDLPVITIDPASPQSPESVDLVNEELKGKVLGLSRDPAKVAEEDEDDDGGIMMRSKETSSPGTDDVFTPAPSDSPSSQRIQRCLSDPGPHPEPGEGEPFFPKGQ
Description: Assessment of Intracellular pH: Keratinocytes were plated on glass coverslips and grown in Cascade 154 medium containing 0.07 mM Ca^2+. The coverslips were incubated in 145 μM BCECF-AM ester at room temperature for 5 minutes, then rinsed for 30 minutes in buffer containing either 28 mM HEPES, 136 mM NaCl, 5 mM KCl, 0.07 mM CaCl2 and 10 mM glucose, pH 7.4 or Ringer solution (136 mM NaCl, 5 mM KCl, 0.03 mM Ca2+, 28 mM TES, 14 mM Na HCO3, NaOH to adjust the pH to 7.4, and 10 mM glucose (pH 7.4, 330 mOsm)). BCECF-AM-ester is membrane permeable; once inside cells it is de esterified by endogenous […], trapping flourescently-active, acidic BCECF inside the cells. The BCECF-loaded cells were placed in a superfusion chamber mounted on a inverted microscope (Nikon). The keratinocytes were superfused with one of the two solutions, and baseline intracellular pH was monitored constantly using a ratiometric method (Paradiio et al (1987) Am J. Physiol. 253:C30-6). […] The resultant fluorescence (at 530 nm) from each stimulating wavelength was measured with a CCD camera (Hamamatsu) digitally ratioed, and stored using a software program (Fluor, Universal Imaging Co., West Chester, Pa.). Whereas fluorescence emission at 440 nm excitation remains constant, indicative of dye concentration, emission from 490 nm varies proportionally with changes of intracellular pH. […]

hairless mice [1] = experiment: Barrier recovery (TEWL) after tape-stripping; conditions: for barrier recovery after tape-stripping: NHE1 inhibitors, general statement
Description: Permeability Barrier Studies: Normal hairless mice were treated topically twice a daily for three days with BPB (4 mg/mL) or MJ33 (4 mg/mL) both in propylene glycol:ethanol (7:3 v/v) vehicle, or the vehicle alone on an area of 5-6 cm on the backs and flanks as described previously (Mao-Qiang, M., et al., J. Lipid Res. 36:1926-35 (1995)). […] The acidification experiments were performed with 10 mM HEPES-buffer, adjusted to either pH 5.5 or pH 7.4 as follows: One flank of anesthetized mice was immersed on a mesh netting, as described previously (Lee, S. H., et al., J. Clin. Invest. 89:530-8 (1992)). The mice were anesthetized with chloral hydrate (Morton Grove Pharmaceuticals, Morton Grove, Ill., USA). After 3 hours immersion at 37° C., the mice were removed, and the remaining buffer was gently blotted off. After 15 minutes, barrier function was determined by measurement of transepidermal water loss(TEWL) with an electrolytic water analyzer (MEECO®, Warrington, Pa.). […] Individually tested sites were covered with Hilltop Chambers (HtC, nominal volume 200 mL), which were reapplied following each indvidual measurement.
(§2) The stratum corneum was removed by several strippings with adhesive tape (Tesatape, Beiersdorf, Germany) inducing an increase in TEWL levels above baseline (from 2-5 to approximately 10-15 g/m^2/h). Two sites were prepared on each animal, and TEWL and surface pH were measured at 0, 2, 5 and 24 hrs following the stripping and the applications of inhibitors.
Hairless mice were tape stripped to TEWL of 7-9 g/m^2/h. […] Control areas were covered with Hilltop Chambers containing 10 mM HEPES buffer adjusted to pH 7.4 or pH 5.5 as appropriate. TEWL was measured at 0, 2, 5, and 24 hours post tape-strip. The results are reported as percent barrier recovery from the initial induced defect.

hairless mice [2] = experiment: Stratum corneum cohesion: protein removed per D-Squame stripping; assay type: in vivo, hairless mice (Skh1/Hr)
Description: Before stripping the stratum corneum, the skin surface was cleaned with a single ethanol wipe. D-Squame tapes then were placed sequentially to the test areas for about 3 sec each, removed with forceps, and stored in glass scintillation vials at 5° C.
The amount of protein removed per D-Squame was measured, by a modification of the method of Dreher, F., et al., Acta Derm. […] The protein content per stripping was determined with the Bio-Rad protein assay kit. […] Each tape was incubated with 1 M NaOH for 1 hour at 37° C. in an incubator shaker at 80 rpm, and neutralized thereafter with 1 mL of 1 M HCl in the scintillation vials. Subsequently, 0.2 mL of this solution was incubated in 0.6 ml distilled water plus 0.2 mL of the Bio-Rad protein dye for 5 minutes in borosililate tubes. […] An empty D-Squame tape, as well as distilled water incubated with Bio-Rad dye, served as negative controls. The amount of calculated protein was then normalized to skin surface area (μg/cm^2).

hairless mice [3] = experiment: Skin surface pH after topical treatment or buffer exposure; assay type: in vivo, hairless mice (Skh1/Hr)
Description: (§3) The mice were anesthetized with chloral hydrate (Morton Grove Pharmaceuticals, Morton Grove, Ill., USA). After 3 hours immersion at 37° C., the mice were removed, and the remaining buffer was gently blotted off. After 15 minutes, barrier function was determined by measurement of transepidermal water loss(TEWL) with an electrolytic water analyzer (MEECO®, Warrington, Pa.). Surface pH was measured with a flat, glass surface electrode from Mettler-Toledo (Giessen, Germany), attached to a pH meter (Skin pH Meter PH 900, Courage& Khazaka, Cologne, Germany). Individually tested sites were covered with Hilltop Chambers (HtC, nominal volume 200 mL), which were reapplied following each indvidual measurement.

hairless mice [4] = experiment: Stratum corneum integrity: TEWL after sequential tape strippings; assay type: in vivo, hairless mice (Skh1/Hr)
Description: After 15 minutes, barrier function was determined by measurement of transepidermal water loss(TEWL) with an electrolytic water analyzer (MEECO®, Warrington, Pa.). […] Individually tested sites were covered with Hilltop Chambers (HtC, nominal volume 200 mL), which were reapplied following each indvidual measurement.
as §2

hairless mice [5] = experiment: Permeability barrier function by transepidermal water loss (TEWL); assay type: in vivo, hairless mice (Skh1/Hr)
Description: as §3

murine skin [6] = conditions: 4 mg/mL topical, shown previously; cited from earlier work
murine skin [7] = experiment: Desmosome density and desmoglein-1 staining in lower stratum corneum; assay type: in vivo, mouse; conditions: for density of desmosomes in the lower stratum corneum and at the stratum corneum-stratum granulosum interface: inhibitor-treated vs vehicle sites
Source text: (§1) Ultrastructural methods: Freshly obtained biopsies from mouse skin were fixed directly in modified Karnovsky's fixative, postfixed with reduced osmium tetroxide (OSO4) and then imbedded in an Epon-epoxy mixture. For visualization of lipid-enriched, lamellar bilayer structures, some samples were post fixed in ruthenium tetroxide (RuO4). Sections were cut on a Reichert Ultracut E microtome, counterstained with uranyl acetate and lead citrate, and viewed in a Zeiss 10 CR electron microscope, operated at 60 kV.
Immunofluorescence Staining: Hairless mouse skin was excised with a 6 mm punch biopsy, and the subcutaneous fat was removed. Tissue sections were incubated for 1 hour in blocking buffer (1% bovine serum albumin, 0.1% cold water fish gelatin in phosphate buffered saline (PBS)), and were then incubated for 1 hour further at room temperature with 1:500 dilution of polyclonal rabbit anti-mouse desmoglein 1 antibody (gift of Dr. John Stanley, University of Pennsylvania) diluted in blocking buffer. The tissue was then washed with blocking buffer and incubated one hour at room temperature with fluoroscein, isothiocyanate-conjugated, goat anti-rabbit IgG antibody (DAKO, Carpinteria, Calif., USA), diluted in blocking buffer. Either preincubation of DSG 1 antibody with DSG 1-recombinant protein (gift of Dr. Masayuki Amagai, Keio University, Tokyo, Japan), or omission of the DSG 1 primary antibody eliminated specific staining.

murine skin [8] = experiment: Stratum corneum pH after tape-stripping with buffers and NHE1 inhibitors; assay type: in vivo, mouse
Description: The acidification experiments were performed with 10 mM HEPES-buffer, adjusted to either pH 5.5 or pH 7.4 as follows: One flank of anesthetized mice was immersed on a mesh netting, as described previously (Lee, S. H., et al., J. Clin. Invest. 89:530-8 (1992)). […] After 3 hours immersion at 37° C., the mice were removed, and the remaining buffer was gently blotted off. After 15 minutes, barrier function was determined by measurement of transepidermal water loss(TEWL) with an electrolytic water analyzer (MEECO®, Warrington, Pa.). Surface pH was measured with a flat, glass surface electrode from Mettler-Toledo (Giessen, Germany), attached to a pH meter (Skin pH Meter PH 900, Courage& Khazaka, Cologne, Germany). Individually tested sites were covered with Hilltop Chambers (HtC, nominal volume 200 mL), which were reapplied following each indvidual measurement.
as §2

mouse skin = experiment: Electron microscopy of lamellar bodies and extracellular lipid processing; assay type: in vivo
Source text: as §1

[9] = five hours post tape-strip, in pH 7.4 buffer, buffer alone 38%
[10] = two hours post tape-strip, in pH 7.4 buffer, buffer alone 21%
[11] = fifth strip, fatty acid co-applied with BPB
[12] = fatty acid co-applied with BPB, three days

N=C(N)NC(=O)c1nc(Cl)c(N)nc1N [amiloride, N-Amido-3,5-diamino-6-chloropyrazinecarboxamide]
effect after wash out period (NHE1 antiporter; FIG. 1 (D), recovery from acid load after wash out): non-permanent, non-toxic effect
barrier recovery after tape-stripping (hairless mice [1]): delayed barrier recovery
percent barrier recovery (TEWL rate less than initial induced rate) (hairless mice [1]; [9]): about 25%
percent barrier recovery (TEWL rate less than initial induced rate) (hairless mice [1]; [10]): about 12%

CCCCCCCCCCCCCCCCCC(=O)O [stearic acid]
protein lost (hairless mice [2]; [11]): about 25 μg protein/cm^2
pH of the stratum corneum (hairless mice [3]; [12]): 5.73+/−0.09
TEWL after tape strips (hairless mice [4]; [11]): about 25 g/m^2/h

O=C(CBr)c1ccc(Br)cc1 [BPB, bromphenacyl bromide]
protein removed (hairless mice [2]; after five strips (Example 1)): 85-90 μg/cm^2
protein removed per D-Squame stripping (hairless mice [2]; first strip, after three days of treatment): about 20 μg/cm^2
protein lost (hairless mice [2]; five sequential tape-strippings, BPB alone (Example 5)): about 125 μg protein/cm^2
pH of the stratum corneum (hairless mice [3]; BPB alone, comparison with LA co-application): 6.28+/−0.1
pH of the stratum corneum (hairless mice [3]; BPB alone, comparison with PA co-application): 5.92+/−0.05
pH of the stratum corneum (hairless mice [3]; BPB alone, comparison with SA co-application): 6.17+/−0.08
surface pH of BPB treated sites before buffer exposure (hairless mice [3]; BPB three days, before buffer): ~5.95 pH
surface pH (hairless mice [3]; BPB three days, then neutral buffer (pH 7.4) three hours): ~6.41 pH
pH of the skin (hairless mice [3]; after one day, 4 mg/mL topical twice daily): ~6.0 pH
average pH of treated sites (hairless mice [3]; day 3, 4 mg/mL topical twice daily): ~6.4 pH
TEWL before buffer exposure (hairless mice [5]; BPB three days, before neutral buffer): about 10 g/m^2/h
barrier function (hairless mice [5]; BPB three days, then acidic buffer three hours): remained unchanged
TEWL (hairless mice [5]; BPB three days, then neutral buffer three hours): about 18 g/m^2/h
TEWL (hairless mice [5]; day three of treatment): ~11 g/m^2/h
TEWL (hairless mice [5]; day two of treatment): ~6 g/m^2/h
toxicity of the doses employed (murine skin [6]): non-toxic
TEWL after tape strippings (hairless mice [4]; BPB treated sites then acidic buffer, three sequential strippings): less than 30 g/m^2/h
TEWL after tape strippings (hairless mice [4]; BPB treated sites then neutral buffer, three sequential strippings): more than 60 g/m^2/h
TEWL after tape strips (hairless mice [4]; fifth strip, BPB alone (Example 5)): 80-100 g/m^2/ h
TEWL after tape stripping (hairless mice [4]; fifth strip, after three days of treatment (Example 1)): ~90 g/m^2/h
TEWL after tape stripping (hairless mice [4]; second strip, after three days of treatment): ~20 g/m^2/h
density of desmosomes in the lower stratum corneum and at the stratum corneum-stratum granulosum interface (murine skin [7]): dramatic reduction
density of DSG1 positive clusters (murine skin [7]; laser confocal microscopy, lower stratum corneum): decline dramatically

CCCCCCCCCCCCCCCC(=O)O [palmitic acid]
protein lost (hairless mice [2]; [11]): about 40 μg protein/cm^2
protein lost (hairless mice [2]; three strippings, fatty acid co-applied with MJ33): about 30 μg/cm^2
pH of the stratum corneum (hairless mice [3]; [12]): 5.40+/−0.14
TEWL after tape strips (hairless mice [4]; [11]): 55-60 g/m^2/h
TEWL after tape strips (hairless mice [4]; three sequential tape-strippings, fatty acid co-applied with MJ33): 30-35 g/m^2/h

CCCCCCCCCCCCCCCCOCC(COCC(F)(F)F)OP(=O)(O)OC (centres unmarked) [MJ33, 1-Hexadecyl-3-triflouroethylglycero-sn-2-phosphomethanol]
protein lost (hairless mice [2]; day 3, after three consecutive tape-strippings (Example 1)): over 50 μg protein/cm^2
protein lost (hairless mice [2]; three sequential strippings, MJ33 alone (Example 5)): about 50 μg protein/cm^2
stratum corneum surface pH (hairless mice [3]; MJ33 4 mg/mL vs vehicle alone (5.60)): 5.87+/−0.06
fold increase in TEWL rates (hairless mice [5]; by day three, vs vehicle): 2-3 fold
TEWL rates (hairless mice [5]; day three, repeated applications, vehicle 2.97): 5.19+/−.81
toxicity of the doses employed (murine skin [6]): non-toxic
TEWL after tape strippings (hairless mice [4]; day 3, after three consecutive tape strippings (Example 1)): ~75 g/m^2/hr
TEWL after tape strips (hairless mice [4]; three sequential tape-strippings, MJ33 alone (Example 5)): ~75 g/m^2/h
density of desmosomes in the lower stratum corneum and at the stratum corneum-stratum granulosum interface (murine skin [7]): dramatic reduction

CS(=O)(=O)c1cc(C(=O)NC(=N)N)ccc1N1CCCCC1 [HOE694, 3-methylsulfonyl-4-piperidino-benzoylguanidinemethanesulfonate]
stratum corneum pH relative to initial post-tape-strip value (murine skin [8]; 2 hours post-tape-strip, pH 5.5 HEPES buffer): more than 0.1 pH units
stratum corneum pH relative to initial post-tape-strip value (murine skin [8]; 5 hours post-tape-strip, pH 5.5 HEPES buffer): more than 0.05 pH units
stratum corneum pH relative to initial post-tape-strip value (murine skin [8]; five hours post-tape-strip, pH 7.4 buffer): persisted and even increased
initial post-tape-strip pH value (murine skin [8]; in pH 5.5 buffer, vs pH 5.5 buffer alone): increased significantly
stratum corneum pH above that of skin exposed to pH 7.4 buffer alone (murine skin [8]; two hours post-tape-strip, in pH 7.4 buffer): ~0.05 pH units
stratum corneum pH increase over initial post-tape-strip value (murine skin [8]; two hours post-tape-strip, pH 7.4 buffer): > 0.1 pH units
intracellular pH (NHE1 antiporter; 1.5 μM for 16 hours, from pH 7.05): 6.90 pH
lamellar body formation and extracellular processing of secreted lipids (mouse skin; in pH 5.5 buffer): appeared normal
extracellular processing of secreted lipids (mouse skin; in pH 7.4 buffer): defective
lamellar body formation and secretion (mouse skin; in pH 7.4 buffer): undisturbed
percent barrier recovery (TEWL rate less than initial induced rate) (hairless mice [1]; 2 hours post tape-strip, in pH 5.5 buffer, buffer alone 28%): 25%
percent barrier recovery (TEWL rate less than initial induced rate) (hairless mice [1]; 5 hours post tape-strip, in pH 5.5 buffer): 38%
percent barrier recovery (TEWL rate less than initial induced rate) (hairless mice [1]; 24 hours post tape-strip, in pH 5.5 buffer): 75%
percent barrier recovery (TEWL rate less than initial induced rate) (hairless mice [1]; 24 hours post tape-strip, in pH 7.4 buffer, buffer alone 75%): about 45%
barrier recovery after tape-stripping (hairless mice [1]): delayed barrier recovery
percent barrier recovery (TEWL rate less than initial induced rate) (hairless mice [1]; [9]): 23%
percent barrier recovery (TEWL rate less than initial induced rate) (hairless mice [1]; [10]): about 12%

CCCCC/C=C\C/C=C\CCCCCCCC(=O)O [linoleic acid]
pH of the stratum corneum (hairless mice [3]; [12]): 5.77+/−0.10
